The values that follow come from article PMC9516332 (Frontiers in Oncology, 2022).

Structures are written as SMILES. Like-named read-outs stand apart in the source and are kept apart here.

Holding throughout (test): Kinase panel profiling at 1 µmol/L (MSA or IMAP), percentage inhibition
What all share (type): biochemical

The target of test [1] is panel of 255 wild-type kinases (Homo sapiens, UniProt P07949). To be noted: kinase RET; 1 µmol/L single concentration; read-out: %-inhibition at 1 µmol/L, RET.
In test [2] the target is panel of 255 wild-type kinases (Homo sapiens, UniProt P49137). The note with it: kinase MAPKAPK2; 1 µmol/L single concentration; read-out: %-inhibition at 1 µmol/L, MAPKAPK2.
Test [3] deals with panel of 255 wild-type kinases (Homo sapiens, UniProt P04629). The note with it: kinase TRKA; 1 µmol/L single concentration; read-out: %-inhibition at 1 µmol/L, TRKA.
Test [4] addresses panel of 255 wild-type kinases (Homo sapiens, UniProt Q16539). The note with it: p38α; 1 µmol/L single concentration; read-out: %-inhibition, p38α.
Test [5] addresses panel of 255 wild-type kinases (Homo sapiens, UniProt P21802). To be noted: kinase FGFR2; 1 µmol/L single concentration; read-out: %-inhibition at 1 µmol/L, FGFR2.
The target in test [6] is panel of 255 wild-type kinases (Homo sapiens, UniProt P78362). To be noted: kinase SRPK2; 1 µmol/L single concentration; read-out: %-inhibition at 1 µmol/L, SRPK2.
The target in test [7] is panel of 255 wild-type kinases (Homo sapiens, UniProt Q9UK32). To be noted: kinase RSK4; 1 µmol/L single concentration; read-out: %-inhibition at 1 µmol/L, RSK4.
Test [8] deals with T1, panel of 255 wild-type kinases (Homo sapiens, UniProt Q8TDC3).
T1 sequence (Q8TDC3 1-778): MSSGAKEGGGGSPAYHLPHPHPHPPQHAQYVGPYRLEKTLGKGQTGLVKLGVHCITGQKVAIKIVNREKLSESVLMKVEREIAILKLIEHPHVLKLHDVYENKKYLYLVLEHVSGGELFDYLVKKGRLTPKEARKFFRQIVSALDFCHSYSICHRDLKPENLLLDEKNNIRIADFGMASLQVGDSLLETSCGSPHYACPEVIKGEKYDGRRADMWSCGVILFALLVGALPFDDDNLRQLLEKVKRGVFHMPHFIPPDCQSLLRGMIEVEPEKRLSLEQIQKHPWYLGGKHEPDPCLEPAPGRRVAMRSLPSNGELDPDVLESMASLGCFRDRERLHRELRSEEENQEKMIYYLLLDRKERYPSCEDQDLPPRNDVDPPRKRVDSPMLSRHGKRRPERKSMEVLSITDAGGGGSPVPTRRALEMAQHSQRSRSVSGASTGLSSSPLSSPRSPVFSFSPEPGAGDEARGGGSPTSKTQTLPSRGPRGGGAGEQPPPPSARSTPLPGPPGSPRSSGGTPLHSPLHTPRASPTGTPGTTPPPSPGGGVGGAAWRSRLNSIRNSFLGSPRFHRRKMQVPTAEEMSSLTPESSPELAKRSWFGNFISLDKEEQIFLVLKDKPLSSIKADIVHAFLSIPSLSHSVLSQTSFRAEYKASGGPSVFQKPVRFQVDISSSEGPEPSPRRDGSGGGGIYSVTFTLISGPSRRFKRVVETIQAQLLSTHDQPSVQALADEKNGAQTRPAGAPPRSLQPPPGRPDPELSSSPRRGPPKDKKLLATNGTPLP
The note with it: BRSK1 kinase assay; 1 µmol/L single concentration; read-out: %-inhibition BRSK1.

For test [9], the target named is T2, panel of 255 wild-type kinases (Homo sapiens, UniProt Q8IWQ3).
T2 sequence (Q8IWQ3 1-736): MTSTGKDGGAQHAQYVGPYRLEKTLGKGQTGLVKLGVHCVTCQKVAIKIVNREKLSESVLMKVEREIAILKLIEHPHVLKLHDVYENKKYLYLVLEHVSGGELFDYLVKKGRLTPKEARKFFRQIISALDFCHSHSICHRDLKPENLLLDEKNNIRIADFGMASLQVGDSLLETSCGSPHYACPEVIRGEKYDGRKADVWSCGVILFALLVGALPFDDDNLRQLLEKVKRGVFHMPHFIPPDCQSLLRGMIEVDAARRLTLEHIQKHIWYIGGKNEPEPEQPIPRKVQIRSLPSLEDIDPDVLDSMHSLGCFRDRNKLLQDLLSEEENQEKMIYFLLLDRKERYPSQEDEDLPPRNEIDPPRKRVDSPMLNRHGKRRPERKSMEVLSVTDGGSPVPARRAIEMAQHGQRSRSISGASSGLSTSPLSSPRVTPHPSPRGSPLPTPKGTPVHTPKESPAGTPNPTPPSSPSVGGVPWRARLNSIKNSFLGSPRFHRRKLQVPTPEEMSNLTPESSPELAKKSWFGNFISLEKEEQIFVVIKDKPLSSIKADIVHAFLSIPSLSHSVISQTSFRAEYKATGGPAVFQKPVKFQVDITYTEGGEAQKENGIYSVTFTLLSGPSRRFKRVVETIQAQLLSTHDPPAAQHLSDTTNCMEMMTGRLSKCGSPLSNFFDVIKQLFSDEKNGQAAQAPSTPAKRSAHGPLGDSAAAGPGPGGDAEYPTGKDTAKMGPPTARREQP
The note with it: BRSK2 kinase assay; 1 µmol/L single concentration; read-out: %-inhibition BRSK2.

For test [10], the target named is panel of 255 wild-type kinases (Homo sapiens, UniProt P49761). The note with it: kinase CLK3; 1 µmol/L single concentration; read-out: %-inhibition at 1 µmol/L, CLK3.
Test [11] deals with panel of 255 wild-type kinases (Homo sapiens, UniProt Q15349). The note with it: kinase RSK3; 1 µmol/L single concentration; read-out: %-inhibition at 1 µmol/L, RSK3.
Test [12] concerns the target panel of 255 wild-type kinases (Homo sapiens, UniProt Q9UPE1). To be noted: MSSK1; 1 µmol/L single concentration; read-out: %-inhibition, MSSK1.
Test [13] has as its target panel of 255 wild-type kinases (Homo sapiens, UniProt Q04912). The note with it: kinase RON; 1 µmol/L single concentration; read-out: %-inhibition at 1 µmol/L, RON.
For test [14], the target named is panel of 255 wild-type kinases (Homo sapiens, UniProt Q96GD4). To be noted: read-out: %-inhibition AurB.
The target of test [15] is panel of 255 wild-type kinases (Homo sapiens, UniProt P48729). The note with it: kinase CK1α; 1 µmol/L single concentration; read-out: %-inhibition at 1 µmol/L, CK1α.
Where [16] appears, read: AurB kinase assay, 1 µmol/L single concentration.

Consider `CCc1nc(C(N)=O)c(Nc2ccc(N3CCC(N4CCN(C)CC4)CC3)c(OC)c2)nc1NC1CCOCC1` [gilteritinib], for which the inhibition at 1 µM is 100% in test [1]; -27% in [2]; 100% in [3]; 4% in test [4]; 61% in test [5]; 12% in test [6]. In addition, the inhibition at 1 µM in test [7] was found to be 44%; in test [8], 23%; in test [9], 23%; in [10], 7%; in test [11] it was 64%; in [12], 22%. In addition, the inhibition at 1 µM worked out at 98% in test [13], 64% in test [14] and 13% in [15].

In the case of `O=C(Nc1cnn2ccc(N3CCC[C@@H]3c3cc(F)ccc3F)nc12)N1CC[C@H](O)C1` [larotrectinib], the inhibition at 1 µM in test [1] is 1.71%; in [2], -13%; in [3], 99%; in test [4], -1.34%; in test [5], -6.46%; in test [6], -3%. In addition, the inhibition at 1 µM was -7% in [7]; -0.915% in test [8]; 0.485% in test [9]; -3.43% in test [10]; -10% in test [11]; -1.58% in [12]. The inhibition at 1 µM in [13] is 2.82%; in test [14] (setting [16]), -4.57%; in test [15], 1.46%.

Take `FC(F)(F)c1ccc(CNc2ccc(Cc3c[nH]c4ncc(Cl)cc34)cn2)cn1` [pexidartinib]: the inhibition at 1 µM in test [1] was 88%; in test [2], -32%; in test [3], 79%; in [4], 0.932%; in test [5], 62%; in [6] it was -1.19%. For the same compound, the inhibition at 1 µM in test [7] is 24%; in test [8], 9%; in test [9], 5.28%; in test [10] it was 18%; in test [11] it was 42%; in test [12], -4%. The inhibition at 1 µM stood at 23% in test [13], 60% in test [14] (setting [16]) and 4.47% in test [15].

With `CO[C@]1(C(=O)N[C@@H](C)c2ccc(-n3cc(F)cn3)nc2)CC[C@H](c2nc(C)cc(Nc3cc(C)[nH]n3)n2)CC1` [pralsetinib], the inhibition at 1 µM in test [1] is 99%; in test [2], -31%; in test [3], 96%; in test [4], 3%; in test [5], 98%; in test [6] it was -2.72%. The inhibition at 1 µM in [7] was 37%; in test [8], 12%; in [9], 14%; in test [10] it was 9%; in [11], 64%; in test [12] it was -6%. For the same compound, the inhibition at 1 µM was 2.6% in test [13], 38% in test [14] (setting [16]) and -2.22% in test [15].

In the case of `CCn1c(=O)c(-c2cc(NC(=O)Nc3ccccc3)c(F)cc2Br)cc2cnc(NC)cc21` [ripretinib], the inhibition at 1 µM was 94% in [1]; -24% in test [2]; 42% in [3]; 88% in test [4]; 72% in test [5]; -2.82% in test [6]. In addition, the inhibition at 1 µM was 0.401% in test [7]; 1.77% in test [8]; 8% in [9]; -7% in test [10]; 12% in test [11]; -0.94% in [12]. Moreover, the inhibition at 1 µM in test [13] was found to be 1.39%; in test [14] (setting [16]), 5%; in [15] it was 11%.

In the case of `COc1ccc(CN2C3CC2CN(c2ccc(-c4cc(OCC(C)(C)O)cn5ncc(C#N)c45)cn2)C3)cn1` [selpercatinib], the inhibition at 1 µM in test [1] was 102%; in test [2] it was -5.47%; in test [3], 33%; in test [4] it was -0.132%; in test [5], 100%; in test [6], -0.197%. Besides, the inhibition at 1 µM is 43% in test [7]; 36% in test [8]; 35% in test [9]; 0.425% in [10]; 56% in test [11]; 2.44% in [12]. In addition, the inhibition at 1 µM in [13] was 49%; in [14] (setting [16]) it was 79%; in test [15], 25%.

Consider `Cn1cnc2c(F)c(Nc3ccc(Br)cc3Cl)c(C(=O)NOCCO)cc21` [selumetinib], for which the inhibition at 1 µM in [1] is 38%; in [2], -5%; in test [3], 18%; in [4] it was 3.34%; in test [5] it was 1.1%; in test [6], -2.61%. Further, the inhibition at 1 µM in [7] is 5.4%; in [8], -1.75%; in test [9] it was 4%; in test [10], 7.48%; in [11] it was 4.41%; in test [12] it was -5.32%. For the same compound, the inhibition at 1 µM was -1.28% in test [13], 12% in test [14] (setting [16]) and -3.42% in test [15].
